Values of other authors, collected in publication PMC9694544, “Conteltinib (CT-707) in patients with advanced ALK-positive non-small cell lung cancer: a multicenter, open-label, first-in-human phase 1 study” (BMC Medicine, 2022).
Read-outs that look alike come from different tables or passages of the source.

Columns and labels:
ALK-positive NSCLC = details: cited from earlier work
[1] = test system: patients with ALK-positive NSCLC; details: cited from earlier work
[2] = ALK TKI-naïve patients, at RP2D
[3] = patients who received crizotinib previously, at RP2D
[4] = patients who received crizotinib previously, at MTD
[5] = ALK TKI-naïve patients, at the dose around RP2D
[6] = patients who received crizotinib previously, at the dose around RP2D
[7] = patients who received crizotinib previously, at the dose-expansion phase

For `COc1cc(N2CCC(N3CCN(C)CC3)CC2)ccc1Nc1ncc(Cl)c(Nc2ccccc2P(C)(C)=O)n1` [brigatinib], the ORR (ALK-positive NSCLC; [2]) is listed as 100%, the “median PFS” value (ALK-positive NSCLC; [2]) is listed as 30.8 months and the ORR (ALK-positive NSCLC; [3]) is listed as 72%. The “median PFS” value (ALK-positive NSCLC; [3]) was 12.9 months and the “incidence of grade ≥ 3 TRAEs” value [1] was 36%.

In the case of `Cc1cc(Nc2ncc(Cl)c(Nc3ccccc3S(=O)(=O)C(C)C)n2)c(OC(C)C)cc1C1CCNCC1` [ceritinib], the ORR (ALK-positive NSCLC; ALK TKI-naïve patients, at MTD) is listed as 59%, the “median PFS” value (ALK-positive NSCLC; ALK TKI-naïve patients, at MTD) is listed as 18.4 months and the ORR (ALK-positive NSCLC; [4]) is listed as 56%. For the same molecule, the “median PFS” value (ALK-positive NSCLC; [4]) was 6.9 months, the “incidence of grade ≥ 3 TRAEs” value [1] was 49% and the rash [1] was 13%.

For `C[C@@H]1CN(C(=O)c2ccc(NC(=O)c3cc(O[C@H](C)c4c(Cl)ccc(F)c4Cl)c(N)nn3)cc2)C[C@H](C)N1` [ensartinib], the ORR (ALK-positive NSCLC; [5]) is listed as 80.0%, the “median PFS” value (ALK-positive NSCLC; [5]) is listed as 26.2 months and the ORR (ALK-positive NSCLC; [6]) is listed as 69.0%. The “median PFS” value (ALK-positive NSCLC; [6]) was 9.0 months, the “incidence of grade ≥ 3 TRAEs” value [1] was 23% and the rash [1] was 56%. The rash ([1]; grade ≥ 3) was 12%.

For `COc1cc(N2CCC3(CCN(C)CC3)CC2)ccc1Nc1ncc(Cl)c(Nc2ccccc2P(C)(C)=O)n1` [iruplinalkib], the ORR (ALK-positive NSCLC; ALK TKI-naïve patients, at the dose-expansion phase) is given as 76.3%, the ORR (ALK-positive NSCLC; [7]) is given as 45.7% and the “median PFS” value (ALK-positive NSCLC; [7]) is given as 6.9 months. For the same molecule, the “incidence of grade ≥ 3 TRAEs” value [1] was 35% and the rash [1] was 13%.
